According to ChEMBL document CHEMBL3774317, “Design and synthesis of novel tamoxifen analogues that avoid CYP2D6 metabolism” (Eur J Med Chem, 2016):

What was measured:
Format in all cases: functional
[1] = Cytotoxicity against human UACC257 cells assessed as cell growth at 50 nM after 48 hrs by SRB assay; settings: UACC-257, 48 h, read-out: Activity
[2] = Cytotoxicity against human DU145 cells assessed as cell growth at 5 uM after 48 hrs by SRB assay; settings: DU-145, 48 h, read-out: Activity
[3] = Cytotoxicity against human HOP92 cells assessed as cell growth at 5 nM after 48 hrs by SRB assay; settings: HOP-92, 48 h, read-out: Activity
SN12C = assay: Cytotoxicity against human SN12C cells assessed as cell growth at 50 uM after 48 hrs by SRB assay; settings: read-out: Activity
[4] = Cytotoxicity against human BT549 cells assessed as cell growth at 5 nM after 48 hrs by SRB assay; settings: BT-549, 48 h, read-out: Activity
[5] = Cytotoxicity against human DU145 cells assessed as cell growth at 50 uM after 48 hrs by SRB assay; settings: DU-145, 48 h, read-out: Activity
U-251 = assay: Cytotoxicity against human U251 cells assessed as cell growth at 50 nM after 48 hrs by SRB assay; settings: U-251, 48 h, read-out: Activity
SR = assay: Cytotoxicity against human SR cells assessed as cell growth at 50 nM after 48 hrs by SRB assay; settings: read-out: Activity
T47D = assay: Cytotoxicity against human T47D cells assessed as cell growth at 0.5 uM after 48 hrs by SRB assay; settings: read-out: Activity
EKVX = assay: Cytotoxicity against human EKVX cells assessed as cell growth at 50 nM after 48 hrs by SRB assay; settings: read-out: Activity
[6] = Cytotoxicity against human UACC257 cells assessed as cell growth at 0.5 uM after 48 hrs by SRB assay; settings: UACC-257, 48 h, read-out: Activity
[7] = Cytotoxicity against human HL-60(TB) cells assessed as cell growth at 50 nM after 48 hrs by SRB assay; settings: HL-60, 48 h, read-out: Activity
[8] = Cytotoxicity against human UO31 cells assessed as cell growth at 0.5 uM after 48 hrs by SRB assay; settings: UO-31, 48 h, read-out: Activity
NCI-H23 = assay: Cytotoxicity against human NCI-H23 cells assessed as cell growth at 5 nM after 48 hrs by SRB assay; settings: NCI-H23, 48 h, read-out: Activity
NCI-H226 = assay: Cytotoxicity against human NCI-H226 cells assessed as cell growth at 0.5 uM after 48 hrs by SRB assay; settings: NCI-H226, 48 h, read-out: Activity
[9] = Cytotoxicity against human OVCAR4 cells assessed as cell growth at 10^-8 M after 48 hrs by SRB assay; settings: OVCAR-4, 48 h, read-out: Activity
[10] = Cytotoxicity against human SNB19 cells assessed as cell growth at 10^-7 M after 48 hrs by SRB assay; settings: SNB-19, 48 h, read-out: Activity
[11] = Cytotoxicity against human IGROV1 cells assessed as cell growth at 10^-6 M after 48 hrs by SRB assay; settings: IGROV-1, 48 h, read-out: Activity
MDA-MB-231 = assay: Cytotoxicity against human MDA-MB-231 cells assessed as cell growth at 10^-6 M after 48 hrs by SRB assay; settings: MDA-MB-231, 48 h, read-out: Activity
SK-MEL-28 = assay: Cytotoxicity against human SK-MEL-28 cells assessed as cell growth at 10^-7 M after 48 hrs by SRB assay; settings: SK-MEL-28, 48 h, read-out: Activity
[12] = Cytotoxicity against human SF539 cells assessed as cell growth at 10^-6 M after 48 hrs by SRB assay; settings: SF-539, 48 h, read-out: Activity
[13] = Cytotoxicity against human DU145 cells assessed as cell growth at 10^-5 M after 48 hrs by SRB assay; settings: DU-145, 48 h, read-out: Activity

CCCCCCCCCC(=O)Oc1ccc(/C(=C(/C)c2ccccc2)c2ccc(OCCN3CCCC3)cc2)cc1
growth at 0.05 µM [1]: 102%
growth at 5 µM [2]: 88%
growth at 0.005 µM [3]: 86%
growth at 50 µM (SN12C): -76%
growth at 0.005 µM [4]: 100%
growth at 50 µM [5]: -99%
growth at 0.05 µM (U-251): 95%
growth at 0.05 µM (SR): 87%
growth at 0.5 µM (T47D): 46%
growth at 0.05 µM (EKVX): 90%
growth at 0.5 µM [6]: 76%
growth at 0.05 µM [7]: 98%
growth at 0.5 µM [8]: 61%
growth at 0.005 µM (NCI-H23): 92%
growth at 0.5 µM (NCI-H226): 100%

C/C(=C(/c1ccc(O)cc1)c1ccc(OCCN2CCCC2)cc1)c1ccccc1
growth at 0.01 µM [9]: 90%
growth at 0.1 µM [10]: 101%
growth at 1 µM [11]: 95%
growth at 1 µM (MDA-MB-231): 122%
growth at 0.1 µM (SK-MEL-28): 97%
growth at 1 µM [12]: 91%
growth at 10 µM [13]: 49%
